Patent publication EP0072027A1, “Antiviral compounds” (THE WELLCOME FOUNDATION LIMITED, priority 1981, dated 1983)
Values after ≈ are worked out from the molar mass of the structure shown.

Legend:
[1] = tested on: EHV-1 Pneumabort vaccine strain; test: Comparative in vivo activity against equine rhinopneumonitis virus in hamsters, medicated drinking water (Example 15); design: species or system Syrian hamsters; settings: for Cumulative mortality (out of 15) on day: water conc. 0.075 mg/ml, average intake 6.6-6.8 mg/kg/day
Description: 50 male WO/CR Syrian hamsters were caged randomly in 10 groups of 5, with water and food (seed mix) ad lib. Hamsters were weighed on Days -3, 0, 4, and/or- at death/sacrifice. Water consumption was recorded over Days -3 to 0 to 4.
EHV-1 Pneumabort vaccine strain stored as a 10^-1 dilution, was further diluted 10^-1 in PBS for infection. On Day 0, hamsters in Groups 1-9 received 0.2 ml virus inoculum s/c in the left flank equivalent to about 2 x 10^5 PFU (plaque-forming units).
457U and 759U were dissolved in drinking water at 0.075 mg/ml. Assuming an average daily intake of […], this would result in a daily dose of around 10 mg/kg. Medicated water was provided from approximately 5 hours pre-infection for 96 hours, as below
The drug intake was calculated from the weight of the animals and the water consumption recorded over the period of the experiment.

Herpes simplex type 1 = test: In vitro plaque reduction in VERO cell cultures (Example 16); type: cell-based; settings: for IC50: Human alphaherpesvirus 1, Vero, VERO cells
Description: 60mm plastic cell culture dishes were seeded with a VERO cell suspension (6 ml of 2 x 10^5 cells/ml) in VERO cell growth medium comprising 5% foetal calf serum, 10% Eagles minimal essential medium, 0.11% sodium bicarbonate,0.25% Crystamycin.
(50,000 units/ml sodium benzyl penicillin B.P. and 50 mg/ml streptomcyin sulphate B.P.). The dishes were gently shaken to ensure the complete dispersion of the cells and then the cultures were incubated at 37°C in an atmosphere of 5% CO2/air overnight to attain confluency. The growth medium was then replaced with 2 ml of virus (Herpes simplex type 1) inoculum in phosphate buffered saline (PBS). The virus concentration was such as to induce the formation of 200-400 plaques/plate. A period of 1 hour was allowed for virus absorption at 37°C in 5% COZair, after which time the plates were drained and overlay medium (8 ml) was added at 42 °C. The overlay medium consisted of 0.6% agarose, 2% foetal calf serum, 10% Eagle's minimal essential medium, 0.11% sodium bicarbonate and 0.25% Crystamycin.
Doubling dilutions in micromolarity of active compound were prepared in the overlay and replicate cultures were fed with the maintenance medium overlay containing a range of concentrations of the compound. Untreated virus control cultures and uninfected cultures were also prepared. The overlay was allowed to solidify at room temperature before the cultures were returned to the incubator at 37°C in 5% CO2/air for 4 days. The cultures were then fixed with 10% formalin in PBS for 30 minutes to 1 hour; the overlay was removed and the cells were stained with 0.05% w/v methyl violet in 20% methanol. The resultant plaques were counted and expressed as a percentage of the plaque count of the untreated virus control cultures. These values were then plotted against the log10 of the compound concentration and the IC50 values representing the amount of the compound required to reduce the plaque count by 50% was read from the resulting dose-response line.

Solubility in water = type: physicochemical
Description: As mentioned above, the compounds of formula (I) have the important advantage of having a greater solubility in water than acyclovir. Thus, the compounds of formula (I) wherein X is an oxygen atom and R is a hydroxy group or amino group have solubilities of 0.4 -.0.5% and 2 - 3% w/w respectively compared with a figure of 0.14% w/w for acyclovir.

[2] = tested on: Equine rhinopneumonitis virus (EHV-1); test: In vivo activity against equine rhinopneumonitis virus in hamsters (Example 14), intraperitoneal and oral; design: species or system Syrian weanling hamsters; settings: Equid alphaherpesvirus 1, ip, 120 h; intraperitoneally for 5 days commencing 5 hours pre-infection; read-out: dose rate generally necessary to prevent any virus-induced mortality
[3] = Experiment 1, plaque count reduced by 50%
[4] = Experiment 2, plaque count reduced by 50%
[5] = Experiment 3, plaque count reduced by 50%

| Compound | deaths from virus-induced hepatitis ([1]; in 15 treated hamsters, 14 deaths in 15 untreated controls) | prevention of EHV-1 induced mortality ([1]; orally in drinking water, approximately 7 mg/kg/day) | Cumulative mortality (out of 15) on day ([1]; day 2) | Cumulative mortality (out of 15) on day ([1]; day 3) | Cumulative mortality (out of 15) on day ([1]; day 4+) | activity in vitro against Herpes simplex type I compared with acyclovir (Herpes simplex type 1) | IC50 (Herpes simplex type 1; [3]) | IC50 (Herpes simplex type 1; [4]) | IC50 (Herpes simplex type 1; [5]) | IC50 (Herpes simplex type 1; Mean of Experiments 1-3) | solubility (Solubility in water) | minimal effective dose [2] |
| --- | --- | --- | --- | --- | --- | --- | --- | --- | --- | --- | --- | --- |
| Nc1nc2c(ncn2COC(CO)CO)c(=O)[nH]1 [Example 759U, 9-[(2-hydroxy-1-hydroxymethylethoxy)methyl]guanine] | no deaths | completely prevented | 0 | 0 | 0 | greater activity | 90 nM | 50 nM | 36 nM | 59 nM |  |  |
| Nc1nc2c(ncn2COCCO)c(=O)[nH]1 [acyclovir, 9-(2-hydroxyethoxymethyl) guanine, reference compound] |  |  |  |  |  |  | 170 nM | 75 nM | 110 nM | 118 nM | 1400 µg/mL (≈ 6.22 mM) | 100 mg/kg/day |
